Reference: ChEMBL document CHEMBL1201862, “PubChem BioAssay data set” (2004)
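Cells were grown in 96-well plates and exposed to each compound for 48 hours at five concentrations; endpoints were interpolated linearly between bracketing concentrations, or set to the highest concentration if not reached. The concentration for 50% growth inhibition is given as GI50.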 Active and inactive are the calls of the source. Rule as the data show it: active = GI50 up to about 1.1 µM and inactive = higher.

Columns and labels:
Experiment in all cases: NCI-60 cell line screen, 48 h
[1] = system: DMS-273
[2] = system: XF498
[3] = system: HOP-18
[4] = system: SNB-78
[5] = system: RXF 631
[6] = system: MDA-N
[7] = system: T47D
[8] = system: BT-549
[9] = system: Hs-578T

Measured: GI50

NC(=O)c1cn(Cc2ccccc2)c(=O)n1Cc1ccccc1
inactive: [1] > 100 µM | [2] > 100 µM | [3] > 100 µM | [4] > 100 µM

CC1=C(NC(=O)C(=O)NNC(=O)c2ccncc2)C(=O)c2ccccc2C1=O
inactive: [1] 5.48 µM | [3] 10.5 µM | [4] 14.5 µM | [5] 40.4 µM

O=C1C=C(c2ccccc2)NC1(c1ccccc1)c1cc(-c2ccccc2)[nH]c1-c1ccccc1 (stereo unspecified)
inactive: [1] > 100 µM | [3] > 100 µM | [4] > 100 µM | [5] > 100 µM
active: [2] < 0.01 µM

O=C1Cc2ccccc2N1/N=C\c1ccc([N+](=O)[O-])cc1
inactive: [1] > 100 µM | [2] > 100 µM | [3] > 100 µM | [4] > 100 µM

COC(=O)NC12CC3CC(CC(F)(C3)C1)C2
inactive: [1] > 100 µM | [2] > 100 µM | [4] > 100 µM | [5] > 100 µM

Cc1c(C(=O)/C=C/c2ccc3c(c2)OCO3)[n+]([O-])c2ccccc2[n+]1[O-]
inactive: [1] 22.6 µM | [2] 25.8 µM | [3] 86.7 µM | [4] 36.2 µM | [5] 53.6 µM

OCC(O)C(OC1OC(CO)C(O)C(O)C1O)c1nn(-c2ccc(Cl)cc2)c2nc3cc(Cl)ccc3nc12 (stereo unspecified)
inactive: [2] > 100 µM | [4] > 100 µM | [5] > 100 µM

CC(C)c1ccc(Cc2ccc(C(C)C)c(NC(=O)C(=O)Cc3cnc4ccccc4n3)c2C(C)C)c(C(C)C)c1NC(=O)C(=O)Cc1cnc2ccccc2n1
inactive: [4] > 100 µM | [5] > 100 µM

COc1cc2ccc(C(=O)O)cc2cc1OC
inactive: [1] > 100 µM | [2] > 100 µM | [3] > 100 µM | [4] > 100 µM

CCOC(=O)C(=O)Nc1ccccc1C
inactive: [2] 24.9 µM | [4] > 100 µM | [5] > 100 µM

CCCNC(=O)C1C(=O)C(=O)N(CCC)C1=O (stereo unspecified)
inactive: [1] > 100 µM | [2] > 100 µM | [3] > 100 µM | [4] > 100 µM

Cc1cccc(N(CC(=O)O)S(=O)(=O)c2ccccc2)c1
inactive: [1] > 100 µM | [2] > 100 µM | [3] > 100 µM | [5] > 100 µM

N#CC(C(=O)CCC(=O)Nc1cccc(C(F)(F)F)c1)c1ccc(Cl)cc1 (stereo unspecified)
inactive: [1] > 100 µM | [2] > 100 µM | [3] > 100 µM | [4] > 100 µM | [5] > 100 µM

O=C1C(Cl)=C(Cl)C(=O)N1c1cccc(C(F)(F)F)c1
inactive: [1] > 100 µM | [2] 3.77 µM | [3] > 100 µM | [4] > 100 µM | [5] > 100 µM

Cc1ccc(C2OC(COCc3ccc(Cl)cc3)C(OCc3ccc(Cl)cc3)C2O)cc1 (stereo unspecified)
inactive: [1] 5.82 µM | [2] 10.2 µM | [3] 79.4 µM | [4] 14.3 µM

CC1(C)Cc2c(oc3ncnc(N)c23)CS1
inactive: [1] > 100 µM | [2] > 100 µM | [4] > 100 µM | [5] > 100 µM

Cc1cc(=O)n(-c2c(C)cccc2Cl)c(/C=C(\O)c2ccncc2)n1
inactive: [1] > 100 µM | [3] > 100 µM | [4] > 100 µM | [5] > 100 µM

CC(C)N(C(=O)C12C3C4C1C1C2C3C41C(=O)N(C(C)C)C(C)C)C(C)C (stereo unspecified)
inactive: [1] > 50 µM | [2] > 50 µM | [4] > 50 µM | [5] > 50 µM

CC1=C2C(=CC(C)(CO)C2O)C(=O)C(C)(O)C12CC2 (stereo unspecified)
active: [1] 0.00162 µM | [3] 0.007 µM | [4] 0.00144 µM | [5] 0.00274 µM

[N-]=[N+]=C1C(=O)C2CC3CC(C2)CC1C3
inactive: [1] > 100 µM | [2] > 100 µM | [3] > 100 µM | [4] > 100 µM

O=c1c(O)c(-c2ccc(O)c(O)c2)oc2cc(O)ccc12 [FISETIN]
inactive: [1] 11.5 µM | [2] 20.9 µM | [3] 21.2 µM | [4] 20.1 µM

CC(=O)N1CC2Nc3ccccc3C2CC1CO (stereo unspecified)
inactive: [1] > 100 µM | [2] > 100 µM | [4] > 100 µM | [5] > 100 µM

CCOC(=O)[C@]12C3C=CC(C3)C1C(=O)C1OC12 (stereo partly specified)
inactive: [1] > 100 µM | [2] > 100 µM | [3] > 100 µM | [4] > 100 µM | [5] > 100 µM

CN(C)CCCCN1CCc2c(n(C)c3ccccc23)C1=O
inactive: [1] > 66.7 µM | [2] 20.7 µM | [6] 13.4 µM | [3] > 100 µM | [7] 23.4 µM | [8] > 37.8 µM | [4] > 100 µM | [9] 41.8 µM
